These results are taken from patent US11045509B2, “Tributyrin compositions and methods therefor” (Compound Solutions, Inc., priority 2019, dated 2021).

Format in all cases: in vivo, human
In assay [1] the test system is Firmicutes to Bacteroidetes (F/B) ratio. In words: collective Firmicutes to Bacteroidetes (F/B) ratio in stool before and after 3-week tributyrin study. The note with it: three volunteers, 300 mg tributyrin per day for 3 weeks, stool samples POST vs PRE, FIG. 4. The procedure: With reference to FIG. 4, the collective ratio of firmicutes to bacteroidetes (F/B ratio) was measured in the stool samples of the three volunteer subjects before and after taking tributyrin daily for three weeks as described in the Examples. The firmicutes and bacteroidetes are each a phylum of bacteria making up the largest portion of the human gut microbiome. In particular the F/B ratio has been reported to be associated with metabolic factors and cardiorespiratory fitness. Durk et al., 2018, Int J Sport Nutr Exerc Metab, 29, 249-253. Accordingly, the inventors contemplate a method of increasing the F/B ratio in the gut of a mammal with the administration of a tributyrin-containing composition to the mammal at a dosage that effectively increases the F/B ratio in the gut of the mammal. […] As such, contemplated compositions are thought to not only selectively improve gut microflora, but also to enhance nutrient uptake. The inventors recruited three volunteers who were asked to provide some basic anthropometric characteristics and lifestyle habits. All volunteer subjects (2 female and 1 male) were free of chronic disease and reported not having taken an antibiotic within the past six months. Body mass index (kg/m^2) analysis classified two of the subjects as “overweight” (BMI>25<30), and one as obese (BMI>30). […]

The test system of the next assay is Lachnospira. Description: relative abundance of Lachnospira in stool before and after 3-week tributyrin study (16S rRNA). Particulars: three volunteers, 300 mg tributyrin per day for 3 weeks, stool sample POST vs PRE, FIG. 3. From the text:
(§1) The inventors recruited three volunteers who were asked to provide some basic anthropometric characteristics and lifestyle habits. All volunteer subjects (2 female and 1 male) were free of chronic disease and reported not having taken an antibiotic within the past six months. Body mass index (kg/m^2) analysis classified two of the subjects as “overweight” (BMI>25<30), and one as obese (BMI>30). Although activity habits varied, all of the subjects reported weekly participation in light-to-moderate physical activity, and relatively low caffeine intake (<200 mg/day) and alcohol intake (<3 drinks a week). Before the start of the 3-week study, stool samples were collected from each of the 3 volunteers using the commercially available UBiome Explorer kit. The collected stool samples were sent to Ubiome labs (San Francisco, Calif.) where DNA was extracted followed by 16S rRNA gene amplification for bacterial classification. The 3-week study involved each of the volunteers taking 300 milligrams (mg) of tributyrin per day for 3 weeks. Subjects were verbally instructed to maintain usual dietary and physical activity habits throughout the course of the study. At the end of the 3-week period, stool samples were collected following the same protocol, and sent for analysis. […]

The test system of a further assay is Bifidobacterium. In words: relative abundance of Bifidobacterium in stool before and after 3-week tributyrin study (16S rRNA). The note with it: three volunteers, 300 mg tributyrin per day for 3 weeks, stool sample POST vs PRE, FIG. 1.
From the text: as §1

The next assay has as its system Faecalibacterium. In words: relative abundance of Faecalibacterium in stool before and after 3-week tributyrin study (16S rRNA). The note with it: three volunteers, 300 mg tributyrin per day for 3 weeks, stool sample POST vs PRE, FIG. 2.
From the text: as §1

In the case of `CCCC(=O)OCC(COC(=O)CCC)OC(=O)CCC` [tributyrin], the “increase of collective F/B ratio” value in assay [1] is given as “approximately 50%”. Further, the “increase in relative abundance of Lachnospira” value in the assay on Lachnospira stood at 114%. Moreover, the “increase in relative abundance of Bifidobacterium” value in the assay with Bifidobacterium was 8,841%. Moreover, the “increase in relative abundance of Faecalibacterium” value with Faecalibacterium stood at 29%.
